Measurements taken from PubChem BioAssay (NCI).
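In this assay, cells in 96-well plates receive the compound at five concentrations for 48 hours. Endpoints are linearly interpolated between the surrounding concentrations. GI50: concentration for 50% inhibition of growth. TGI marks complete inhibition of growth.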

What was measured:
Experiment in all cases: NCI tumour cell line growth inhibition, 48 h
786-0 renal = system: 786-0 renal
BT-549 breast = system: BT-549 breast
HCT-15 colon = system: HCT-15 colon
HL-60(TB) leukemia = system: HL-60(TB) leukemia
M14 melanoma = system: M14 melanoma
NCI-H23 lung = system: NCI-H23 lung
RXF 393 renal = system: RXF 393 renal
SK-MEL-28 melanoma = system: SK-MEL-28 melanoma
UACC-257 melanoma = system: UACC-257 melanoma

SMILES | TGI (786-0 renal) [µM] | TGI (BT-549 breast) [µM] | TGI (HCT-15 colon) [µM] | TGI (HL-60(TB) leukemia) [µM] | TGI (M14 melanoma) [µM] | TGI (NCI-H23 lung) [µM] | TGI (RXF 393 renal) [µM] | TGI (SK-MEL-28 melanoma) [µM] | TGI (UACC-257 melanoma) [µM] | GI50 (BT-549 breast) [µM] | GI50 (HCT-15 colon) [µM] | GI50 (RXF 393 renal) [µM] | GI50 (UACC-257 melanoma) [µM]
COc1ccc2c3c([nH]c2c1)[C@H](C=C(C)C)N1C(=O)[C@@H]2CCCN2C(=O)[C@@H]1C3 | > 100 | > 100 | > 100 | > 100 | > 100 | > 100 | > 100 | 55.5 | > 100 |  |  |  | 
Nc1ccc(Cc2ccc(N)c(C(=O)O)c2)cc1C(=O)O | > 100 | > 100 | > 100 | > 100 | > 100 | > 100 | > 100 | > 100 | > 100 |  |  |  | 
COc1cc2cc[n+](C)c(Cc3ccc(Oc4cc(Cc5c6cc(OC)c(OC)cc6cc[n+]5C)ccc4OC)cc3)c2cc1OC | > 100 | > 100 | > 100 | > 100 | > 100 | > 100 | > 100 | > 100 | > 100 |  |  |  | 
CCCCSCCC(N)P(=O)(O)O (stereo not drawn) |  |  | > 100 | > 100 | > 100 | > 100 |  | > 100 | > 100 |  |  |  | 
O=S(C(c1ccccc1)=P(c1ccccc1)(c1ccccc1)c1ccccc1)c1ccc(Cl)cc1 (stereo not drawn) | > 100 |  | > 100 | 45 | > 100 | > 100 | 95.1 | > 100 | > 100 |  |  |  | 
Cc1ccc(S(=O)(=O)Nc2cc(=O)[nH]c3c2CCC3)cc1 | > 100 | > 100 | > 100 | > 100 | > 100 | > 100 | > 100 | > 100 | > 100 |  |  |  | 
C[C@]12O[C@@]3(C)O[C@@]3(C)[C@]3(C)O[C@]3(C)[C@@]1(C)O2 | > 100 | > 100 | > 100 |  | > 100 | > 100 |  | > 100 | > 100 |  |  |  | 
O=C(NN1CCCCC1)c1cc2cc(CCl)ccc2oc1=O | 32 | 38 | 39.9 | 37.7 | 49.4 | 32.5 | 34.4 | > 100 | 59.1 |  |  |  | 
CCCC(=O)Nc1cc(/C=C/C(=O)N2CC(CCl)c3c2cc(OC(C)=O)c2[nH]cc(C)c32)n(C)c1 (stereo not drawn) |  | 0.00227 | > 0.134 | 0.00101 |  | 8.72e-05 | < 2.5e-05 |  |  |  |  |  | 
C=CCc1cccc(/C(O)=C/C(=O)/C=C/c2ccccc2Cl)c1O | > 71.6 | > 81.3 | > 100 |  | > 100 | 21.8 | 75.8 | > 57.5 | > 70.4 |  |  |  | 
CN(CCCN1CCCC1)CCCN(C)C(=O)Cc1ccc(Cl)c(Cl)c1 | 29.2 | 46.2 | > 87 | 37.1 | 13.9 | 54.8 | 31.9 | 5.26 | 7.45 |  |  |  | 
CCOC(=O)c1cccc(N=Nc2ncc(/C=C/C(=O)OC)[nH]2)c1 | > 100 | > 100 | > 100 | 30 | 76 | > 100 | > 100 | > 100 | 46.4 |  |  |  | 
COc1ccc(-n2nnc3c(C#N)c(C)c(-c4ccccc4)n3c2=O)cc1 | 8.24 | > 100 | > 100 |  | > 26.7 | > 100 | > 21.4 | > 100 | > 100 |  |  |  | 
CC(NC(=O)c1ccc(OP(=O)(OCc2ccc([N+](=O)[O-])o2)N(C)CCCCCl)cc1)c1ccc(OCC2CCCCC2)c(C(N)=O)c1 (stereo not drawn) | > 37.2 | 5.94 | 8.14 | 12.3 | 22.7 | > 52.2 | 9.25 | 7 | > 39.8 |  |  |  | 
COc1cc(/C=C2\CC3C4CC[C@H]5C[C@@H](O)CC[C@]5(C)C4CC[C@]3(C)\C2=N\O)cc(OC)c1OC (stereo partly drawn) | 34.8 | 42.1 | > 100 | 55.8 | 37.3 | > 100 | 36.8 | 66.9 | 56.7 |  |  |  | 
CS(=O)(=O)Nc1ccc(NCc2cnc3ccc4[nH]cccc4c23)cc1 | > 100 | 73.2 | > 100 | 52.6 | 46.4 | 59.6 | 41.9 | 66.4 | 51.9 |  |  |  | 
NC(N)=N/N=C/c1c(-c2cccs2)nc2n1CCS2 |  | 44.8 | 60.1 |  |  |  | > 100 |  | 44.8 | 21.4 | 20.6 | 77.7 | 22.3
Cc1c2ccccc2cc2cccc[n+]12 | > 100 | > 100 | > 100 | > 100 |  | 65.5 | > 100 | 70.5 | 43.3 |  |  |  | 
